A short description of data set [1]: octanol/water partition coefficient (log P) by high-performance liquid chromatography, JIS Z 7260-117 (2006).
Source text: (§1) In the present invention (including examples and the like described later), the octanol/water partition coefficient (log P) described above can be measured by a high-performance liquid chromatography according to JIS Z 7260-117 (2006), and it is defined by the following equation:
(§2) log P=log(^┌Co┘/^┌Cw┘) • Co: concentration of an examined substance in a 1-octanol layer • Cw: concentration of an examined substance in an aqueous layer
(§3) The octanol/water partition coefficients (log P) of the vulcanization accelerators obtained in the following respective production examples were measured by a high-performance liquid chromatography according to JIS Z 7260-117 (2006). A high-performance liquid chromatography manufactured by Shimadzu Corporation was used.

Source text for physchem: as §1, §2, §3

As a reminder, the chromatographic logP is lipophilicity estimated from chromatographic retention. Lower therefore signals a more hydrophilic compound. As a reminder, the melting point is the temperature, or range, at which the solid turns liquid. Compound `CCCCN(Sc1nc2ccccc2s1)C(C)(C)C` [N-n-butyl-N-t-butylbenzothiazole-2-sulfenamide] came in with a melting point of 55 to 56 °C. Besides, the chromatographic logP in data set [1] was found to be 5.8. On to `CC(C)N(Sc1nc2ccccc2s1)C(C)(C)C` [N-i-propyl-N-t-butylbenzothiazole-2-sulfenamide], for which the chromatographic logP in the data set “physchem” was 5.1. In the case of `CCCN(Sc1nc2ccccc2s1)C(C)(C)C` [N-n-propyl-N-t-butylbenzothiazole-2-sulfenamide], the chromatographic logP in data set [1] worked out at 5.3. As to `CCN(Sc1nc2ccccc2s1)C(C)(C)C` [N-ethyl-N-t-butylbenzothiazole-2-sulfenamide], the melting point is 60 to 61 °C. In data set [1], this compound registered a chromatographic logP of 4.9. On the same counts, the results for `CN(Sc1nc2ccccc2s1)C(C)(C)C` [N-methyl-N-t-butylbenzothiazole-2-sulfenamide] are 56 to 58 °C and 4.5.

The values above are taken from patent US20110118397A1, “RUBBER COMPOSITION” (BRIDGESTONE CORPORATION, priority 2008, published 2011).
